Measurements: US20230339877A1, “Synthesis and Composition of Neurolenin D Mesylate and Related Compounds - New Drugs for the Treatment of Parasitic Nematode Infections in Humans, Animals and Plants” (Smith College, priority 2022, published 2023)
Where a name gives a salt, the structure may show the parent alone.

Columns and labels:
[1] = test system: adult female Brugia pahangi parasites (BP AF); experiment: Killing of adult female Brugia pahangi parasites (BP AF) in culture; format: cell-based
Experimental: (§1) The drug was applied at 1, 2 and 3 parts per million (ppm) and was 100% effective at killing the parasites at all three concentrations. Even at 1 ppm, all parasites were killed within 90 hours after treatment. The control treatment is with 1, 2 and 3 ppm ethanol given to the parasites in culture under the same conditions. One adult female parasite treated with 1 ppm ethanol died at about 80 hours. This death is not experimentally significant as occasionally a parasite dies in culture without any drug treatment.

[2] = test system: adult male Brugia pahangi parasites (BP AM); experiment: Killing of adult male Brugia pahangi parasites (BP AM) in culture; format: cell-based
Experimental: as §1, with “120” for “90”, “male” for “female”, “40” for “80”

[3] = test system: microfilariae (larvae); experiment: Killing of microfilariae (larvae) produced following mating of adult parasites; format: cell-based, Brugia pahangi; settings: repeated experiments
Excerpt: 100% of all adult male and female parasites are always killed upon treatment with NDM.

[4] = Biological activity assays for toxicity and mutagenicity; settings: preliminary data
[5] = repeated in many separate trials

C=C1C(=O)O[C@@H]2C[C@H](C)/C=C\C(=O)[C@](C)(O)[C@@H](OS(C)(=O)=O)[C@@H](OC(=O)CC(C)C)[C@@H]12 [NDM, Neurolenin D Mesylate]
time after treatment by which all parasites were killed ([1]; adult female BP in culture, 1 ppm): ≤ 90 h
effective at killing the parasites ([1]; adult female BP in culture, drug applied at 1, 2 and 3 ppm, all three concentrations, FIG. 1): 100%
speed of killing compared with other neurolenin derivatives ([1]; adult female BP, FIG. 1, at the endpoint 100% of worms killed): more slowly
adult female parasites killed upon treatment [1, 5]: 100%
time after treatment by which all parasites were killed ([2]; adult male BP in culture, 1 ppm): ≤ 120 h
effective at killing the parasites ([2]; adult male BP in culture, drug applied at 1, 2 and 3 ppm, all three concentrations, FIG. 2): 100%
speed of killing compared with other neurolenin derivatives ([2]; adult male BP, FIG. 2, at the endpoint 100% of worms killed): more slowly
adult male parasites killed upon treatment [2, 5]: 100%
microfilariae (larvae) killed [3]: 100%
mutagenicity [4]: not toxic or mutagenic
toxicity [4]: not toxic
